Read-outs that look alike come from different tables or passages of the source.
Experiments:
[1] = biological target: T1, Glucocorticoid Receptor (Homo sapiens, UniProt P04150); experiment: Trans-Activation Modulation of Glucocorticoid Receptor (GRAMMER), MMTV-LUC reporter gene in A549 cells; type: cell-based; details: Table 1; for Emax: A549, A549 cells, read-out: Transactivation A549 Cells GRAMMER Emax; for Emax / Transactivation A549 Cells GRAMMER Emax: Emax relative to 300 nM dexamethasone; for EC50: inflection point, read-out: Transactivation A549 Cells GRAMMER IP; for EC50 / Transactivation A549 Cells GRAMMER Emax: A549 cells
T1 construct: These cells express large amount of the GR and are very responsive to GC treatment; endogenous in cells; host or cells: A549 cells transiently transfected with the MMTV-LUC reporter
T1 sequence (P04150 1-777): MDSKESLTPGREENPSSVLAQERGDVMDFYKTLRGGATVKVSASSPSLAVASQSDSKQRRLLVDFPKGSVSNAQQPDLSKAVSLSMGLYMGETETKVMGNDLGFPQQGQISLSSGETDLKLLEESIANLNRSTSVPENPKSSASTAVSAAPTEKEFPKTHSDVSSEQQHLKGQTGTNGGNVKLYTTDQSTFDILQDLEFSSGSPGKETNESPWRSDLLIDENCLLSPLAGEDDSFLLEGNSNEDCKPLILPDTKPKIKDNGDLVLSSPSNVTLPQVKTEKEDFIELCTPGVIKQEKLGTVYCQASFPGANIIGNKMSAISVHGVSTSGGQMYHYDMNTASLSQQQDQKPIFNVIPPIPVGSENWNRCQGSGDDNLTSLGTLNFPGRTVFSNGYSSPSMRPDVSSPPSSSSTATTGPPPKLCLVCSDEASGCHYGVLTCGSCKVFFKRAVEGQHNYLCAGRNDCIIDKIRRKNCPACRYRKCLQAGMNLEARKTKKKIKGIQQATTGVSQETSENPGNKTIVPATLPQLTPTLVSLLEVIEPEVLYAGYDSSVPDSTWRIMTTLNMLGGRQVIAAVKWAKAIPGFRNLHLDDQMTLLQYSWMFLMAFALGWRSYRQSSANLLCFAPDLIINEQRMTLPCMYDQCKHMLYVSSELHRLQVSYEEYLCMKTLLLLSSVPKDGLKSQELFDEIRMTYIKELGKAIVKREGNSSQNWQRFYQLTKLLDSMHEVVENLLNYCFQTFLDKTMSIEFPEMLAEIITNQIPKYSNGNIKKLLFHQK
How it was run: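 Luciferase from a transiently transfected MMTV-LUC reporter was measured after 24 h compound exposure (≤1% DMSO) in A549 or MDA-MB-453 cells. For antagonism, the decrease of 10 nM dexamethasone-induced signal was calculated. For agonism, Emax was referenced to 300 nM dexamethasone.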

[2] = biological target: T2, human GR (Homo sapiens, UniProt P04150); experiment: Transrepression Assay (GITAR), TNFα-β-lactamase reporter gene in U937 cells; type: cell-based; details: for GITAR Greater than by GRAMMER % SEP: GITAR Emax minus GRAMMER Emax; for EC50: inflection point, read-out: Transrepression U937 Cells GITAR IP; for EC50 / Transrepression U937 Cells GITAR Emax: U937 cells
T2 construct: U937 cells contain an endogenous glucocorticoid receptor (GR); endogenous in cells; host or cells: U937 cells stably transfected with the TNF-alpha promoter/beta-lactamase reporter
T2 sequence (P04150 1-777): T1 sequence (P04150 1-777)
How it was run: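 Repression of PMA (5 ng/ml final)/LPS (100 ng/ml final)-induced TNF-α promoter activity, read as β-lactamase cleavage of CCF2-AM, in stably transfected U937 cells expressing native GR. Compound added 30-45 min before stimulation, overnight (~18 hr) 37° C; normalized to 100 nM dexamethasone (100%).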

[3] = biological target: T3, glucocorticoid receptor (GR) (Homo sapiens, UniProt P04150); experiment: Ligand binding assay (GR BIND), 3H-dexamethasone displacement in MDA-MB-453 cell lysate; details: GR BIND Ki, Table 1
T3 sequence (P04150 1-777): T1 sequence (P04150 1-777)
Method: Binding Buffer: TEGM (10 mM Tris-HCl, 1 mM EDTA, 10% glycerol, 1 mM beta-mecaptoethanol, 10 mM Sodium Molybdate, pH 7.2)
50% HAP Slurry: Calbiochem Hydroxylapatite, Fast Flow, in 10 mM Tris, pH 8.0 and 1 mM EDTA.
Wash Buffer: 40 mM Tris, pH7.5, 100 mM KCl, 1 mM EDTA and 1 mM EGTA.
Dexmethasone-methyl-^3H, (DEX*); (Amersham cat# TRK645)
Dexamethasone(DEX) (Sigma, cat# D1756):
The cell pellet is washed twice with TEGM (10 mM Tris-HCl, 1 mM EDTA, 10% glycerol, 1 mM beta-mercaptoethanol, 10 mM Sodium Molybdate, pH 7.2). After the final wash, the cells are resuspended in TEGM at a concentration of 10^7 cells/mL. The cell suspension is snap frozen in liquid nitrogen or ethanol/dry ice bath and transferred to −80° C. freezer on dry ice. Before setting up the binding assay, the frozen samples are left on ice-water to just thaw (˜1 hr). Then the samples are centrifuged at 12,500 g to 20,000 g for 30 min at 4° C. The supernatant is used to set-up assay right away. If using 50 μL of supernatant, the test compound can be prepared in 50 μL of the TEGM buffer.
Procedure for Multiple Compound Screening
1×TEGM buffer is prepared, and the isotope-containing assay mixture is prepared in the following order: EtOH (2% final concentration in reaction), ^3H-DEX (Amersham Biosciences) and 1×TEGM. [e.g. For 100 samples, 200 μL (100×2) of EtOH+4.25 μL of 1:10 ^3H-Dex stock+2300 μL (100×23) 1×TEGM]. The compound is serially diluted, e.g., if starting final conc. is 1 μM, and the compound is in 25 μL of solution, for duplicate samples, 75 μL of 4×1 μM solution is made and 3 μL of 100 μM is added to 72 μL of buffer, and 1:5 serial dilution.
25 μL of ^3H-DEX (6 nM) trace and 25 μL compound solution are first mixed together, followed by addition of 50 μL receptor solution. The reaction is gently mixed, spun briefly at about 200 rpm and incubated at 4° C. overnight. 100 μL of 50% HAP slurry is prepared and added to the incubated reaction which is then vortexed and incubated on ice for 5 to 10 minutes. The reaction mixture is vortexed twice more to resuspend HAP while incubating reaction. The samples in 96-well format are then washed in wash buffer using The FilterMate™ Universal Harvester plate washer (Packard). The washing process transfers HAP pellet containing ligand-bound expressed receptor to Unifilter-96 GF/B filter plate (Packard). The HAP pellet on the filter plate is incubated with 50 μL of MICROSCINT (Packard) scintillint for 30 minutes before being counted on the TopCount microscintillation counter (Packard). IC50s are calculated using DEX as a reference.

[4] = U-937, U937 cells, activity repressed by 100 nM dexamethasone = 100%, Table 1, read-out: Transrepression U937 Cells GITAR Emax
[5] = U-937, text statement, 100 nM dexamethasone = 100%, read-out: maximal activity in the transrepression assay (GITAR)
[6] = activity repressed by 100 nM dexamethasone = 100%, Table 1

SMILES	Emax [1] [%]	EC50 [1] [nM]	GITAR Greater than by GRAMMER % SEP ([2]; Table 1) [%]	Emax [2, 4] [%]	Emax [2, 5] [%]	EC50 ([2]; Table 1) [nM]	Ki [3] [nM]	Transactivation A549 Cells GRAMMER Emax [1] [%]	Transrepression U937 Cells GITAR Emax [2, 6] [%]
CCCN(C(=O)[C@H]1CCC2=Cc3c(cnn3-c3ccc(F)cc3)C[C@@]21C)C(C)CC (stereo partly drawn) [Compound 16, (4αR,5S)-N-(sec-butyl)-1-(4-fluorophenyl)-4α-methyl-N-propyl-1,4,4α,5,6,7-hexahydrocyclopenta[f]indazole-5-carboxamide]	33.8	184	28.1	61.8	> 5	376	2.8	–	–
C[C@]12Cc3cnn(-c4ccc(F)cc4)c3C=C1CC[C@@H]2C(=O)N1CCC(S(=O)(=O)c2ccccc2)CC1 [Compound 51, (4αR,5S)-1-(4-fluorophenyl)-4α-methyl-5-{[4-(phenylsulfonyl)piperidin-1-yl]carbonyl}1,4,4α,5,6,7-hexahydrocyclopenta[f]indazole]	2.9	1190	32.2	35.1	> 5	1380	39.5	–	–
CCN(CC(O)C(F)(F)F)C(=O)[C@H]1CCC2=Cc3c(cnn3-c3ccccc3)C[C@@]21C (stereo partly drawn) [Compound 77, (4αR,5S)-N-ethyl-4α-methyl-1-phenyl-N-(3,3,3-trifluoro-2-hydroxypropyl)-1,4,4α,5,6,7-hexahydrocyclopenta[f]indazole-5-carboxamide]	–	304	10.2	–	–	266	9.8	67.8	78.0
COc1cccc(CN(C)C(=O)[C@H]2CCC3=Cc4c(cnn4-c4ccc(F)cc4)C[C@@]32C)c1 [Compound 47, (4αR,5S)-1-(4-fluorophenyl)-N-(3-methoxybenzyl)-N,4α-dimethyl-1,4,4α,5,6,7-hexahydrocyclopenta[f]indazole-5-carboxamide]	7.4	2020	20.4	27.8	> 5	1690	7.1	–	–
COc1cc(CN(CCO)C(=O)[C@H]2CCC3=Cc4c(cnn4-c4ccc(F)cc4)C[C@@]32C)cc(OC)c1 [Compound 34, (4αR,5S)-N-(3,5-dimethoxybenzyl)-1-(4-fluorophenyl)-N-(2-hydroxyethyl)-4α-methyl-1,4,4α,5,6,7-hexahydrocyclopenta[f]indazole-5-carboxamide]	22.2	1510	44.1	66.3	> 5	644	12	–	–
C[C@]12Cc3cnn(-c4ccc(F)cc4)c3C=C1CC[C@@H]2C(=O)N(Cc1ccccc1F)CC(O)C(F)(F)F (stereo partly drawn) [Compound 59, (4αR,5S)-N-(2-fluorobenzyl)-1-(4-fluorophenyl)-4α-methyl-N-(3,3,3-trifluoro-2-hydroxypropyl)-1,4,4α,5,6,7-hexahydrocyclopenta[f]indazole-5-carboxamide]	75.2	117	1.5	76.7	> 5	91.5	3.9	–	–
C[C@]12Cc3cnn(-c4ccc(F)cc4)c3C=C1CC[C@@H]2C(=O)N1CCCC1CCc1ccccc1 (stereo partly drawn) [Compound 19, (4αR,5S)-1-(4-fluorophenyl)-4α-methyl-5-{[2-(2-phenylethyl)pyrrolidin-1-yl]carbonyl}-1,4,4α,5,6,7-hexahydrocyclopenta[f]indazole]	4	1690	6.2	10.2	> 5	4260	4.5	–	–
CN(Cc1cccc(C(F)(F)F)c1)C(=O)[C@H]1CCC2=Cc3c(cnn3-c3ccc(F)cc3)C[C@@]21C [Compound 46, (4αR,5S)-1-(4-fluorophenyl)-N,4α-dimethyl-N-[3-(trifluoromethyl)benzyl]-1,4,4α,5 ,6,7-hexahydrocyclopenta[f]indazole-5-carboxamide]	2.6	2410	12.7	15.3	> 5	87.4	17.6	–	–
CCCN(CCO)C(=O)[C@H]1CCC2=Cc3c(cnn3-c3ccc(F)cc3)C[C@@]21C [Compound 37, (4αR,5S)-1-(4-fluorophenyl)-N-(2-hydroxyethyl)-4α-methyl-N-propyl-1,4,4α,5,6,7-hexahydrocyclopenta[f]indazole-5-carboxamide]	5.7	2550	31.3	37	> 5	3420	168	–	–
CCCN(CC)C(=O)[C@H]1CCC2=Cc3c(cnn3-c3ccc(F)cc3)C[C@@]21C [Compound 4, (4αR,5S)-N-ethyl-1-(4-fluorophenyl)-4α-methyl-N-propyl-1,4,4α,5,6,7-hexahydrocyclopenta[f]indazole-5-carboxamide]	19.2	909	2.3	21.5	> 5	1000	2.5	–	–
C[C@]12Cc3cnn(-c4ccc(F)cc4)c3C=C1CC[C@@H]2C(=O)N1CCCC(=O)CC1 [Compound 15, 1-{[(4αR,5S)-1-(4-fluorophenyl)-4α-methyl-1,4,4α,5,6,7-hexahydrocyclopenta[f]indazol-5-yl]carbonyl}azepan-4-one]	5.3	1540	7.2	12.5	> 5	3410	120	–	–
C[C@]12Cc3cnn(-c4ccc(F)cc4)c3C=C1CC[C@@H]2C(=O)N(CCc1ccccc1F)CC(O)C(F)(F)F (stereo partly drawn) [Compound 84, (4αR,5S)-1-(4-fluorophenyl)-N-[2(2-fluorophenyl)ethyl]-4α-methyl-N-(3,3,3-trifluoro-2-hydroxypropyl)-1,4,4α,5,6,7-hexahydrocyclopenta[f]indazole-5-carboxamide]	–	188	25.7	–	> 5	191	0.8	43.7	69.4
C[C@]12Cc3cnn(-c4ccc(F)cc4)c3C=C1CC[C@@H]2C(=O)N(CCc1ccccc1F)CC(O)CC(F)(F)F (stereo partly drawn) [Compound 87, (4αR,5S)-1-(4-fluorophenyl)-N-[2-(2-fluorophenyl)ethyl]-4α-methyl-N-(4,4,4-trifluoro-2-hydroxybutyl)-1,4,4α,5,6,7-hexahydrocyclopenta[f]indazole-5-carboxamide]	–	287	23.1	–	> 5	232	0.8	38.0	61.1
CN(CC(O)C(F)(F)F)C(=O)[C@H]1CCC2=Cc3c(cnn3-c3ccccc3)C[C@@]21C (stereo partly drawn) [Compound 75, (4αR,5S)-N,4α-dimethyl-1-phenyl-N-(3,3,3-trifluoro-2-hydroxypropyl)-1,4,4α,5 ,6,7-hexahydrocyclopenta[f]indazole-5-carboxamide]	–	164	18.9	–	–	181	7.6	65.2	84.0

From patent publication US8338472B2, “Hexahydrocyclopentyl[F]indazole carboxamides and derivatives thereof as selective glucocorticoid receptor modulators” (Merck Sharp & Dohme Corp., priority 2008, dated 2012)
